Reference: patent US20110245335A1, “NEW INHIBITORS FOR TREATING DISEASES ASSOCIATED WITH AN EXCESS TRANSPORT OF HYALURONAN” (priority 2008, published 2011)

What was measured:
[1] = pKa of the acidic moiety (stated in design rationale, no method); assay type: physicochemical; conditions: approximate values given in design rationale; no method described; read-out: pKa of the carboxylic moiety or its replacement
hyaluronan export = test: Assay for hyaluronan transport/export inhibitors in fibroblast cell culture (hyaluronan in culture medium by ELISA); assay type: cell-based; conditions: 2 days at 37° C.
Description: Trypsinised fibroblasts were suspended in Dulbeccós medium at 10^5 cells/ml and 100 μl aliquots were transferred to a 96 well microtiter plate. The first row received 200 μl of the suspension and 20 μl of the inhibitors of the invention dissolved in phosphate buffered saline at concentrations of 4 mM. A serial dilution of the inhibitors was established by transfer of 100 μl aliquots from the first row to the following rows. All experiments were performed in duplicates. […] The cells were incubated for 2 days at 37° C. and aliquots (5 and 20 μl) of the culture medium were used for measurement of the hyaluronan concentration in the cell culture medium by an ELISA [125]. Briefly, the wells of a 96 well Covalink-NH-microtiter plate (NUNC) were coated with 100 μl of a mixture of […] of hyaluronan (Healon®), 9.2 μg/ml of N-Hydroxysuccinimide-3-sulfonic acid and 615 μl/ml of 1-ethyl-3-(3-dimethylaminopropyl)-carbodiimide for 2 hours at room temperature and overnight at 4° C. The wells were washed three times with 2 M NaCl, 41 mM MgSO4, 0.05% Tween-20 in 50 mM phosphate buffered saline pH 7.2 (buffer A) and once with 2 M NaCl, 41 mM MgSO4, in phosphate buffered saline pH 7.2. Additional binding sites were blocked by incubation with 300 μl of 0.5% bovine serum albumin in phosphate buffered saline for 30 min at 37° C. Calibration of the assay was performed with standard concentrations of hyaluronan ranging from 15 ng/ml to 6000 ng/ml in equal volumes of culture medium as used for measurement of the cellular supernatants. A solution (50 μl) of the biotinylated hyaluronan binding fragment of aggrecan (Calbiochem) in 1.5 M NaCl, 0.3 M guanidinium hydrochloride, 0.08% bovine serum albumin 0.02% NaN3 25 mM phosphate buffer pH 7.0 was preincubated with 50 μl of the standard hyaluronan solutions or cellular supernatants for 1 hour at 37° C. The mixtures were transferred to the hyaluronan-coated test plate and incubated for 1 hour at 37° C. The microtiter plate was washed three times with buffer A and incubated with 100 μl/well of a solution of streptavidin-horseraddish-peroxidase (Amersham) at a dilution of 1:100 in phosphate buffered saline, 0.1% Tween-20 for 30 min at room temperature. The plate was washed five times with buffer A and the colour was developed by incubation with a 100 μl/well of a solution of 5 mg o-phenylenediamine and 5 μl 30% H2O2 in 10 ml of 0.1 M citrate-phosphate buffer pH 5.3 for 25 min at room temperature. The adsorption was read at 490 nm. The concentrations in the samples were calculated from a logarithmic regression curve of the hyaluronan standard solutions.

[2] = tested on: II-1α activated bovine cartilage explants; conditions: ref [14]; cited from earlier work

SMILES	pKa [1]	IC50 (hyaluronan export; Fibroblast, 48 h) [µM]	other results
CC(=O)Nc1ccccc1Oc1cccc(O)c1C(=O)O [Compound 86]	~3	–	IC50 for hyaluronan export (hyaluronan export): no inhibitory activity
CC(=O)Nc1c(O)cc(O)cc1Oc1ccc(NC/C=C/c2ccccc2)cc1C(=O)O [Compound 96]	–	10	–
CC(=O)Nc1c(O)cccc1Oc1ccccc1C(=O)NO [Compound 97]	~8	–	IC50 (hyaluronan export; listed as No. 97): 30 µM
CC(=O)Nc1c(O)cc(O)cc1Oc1cccc(N(C)C)c1C(=O)O [Compound 98]	–	200	–
CC(=O)Nc1c(O)cc(O)cc1Oc1ccc(Cl)cc1S(=O)(=O)O [Compound 99]	~1	~80	–
CCCOc1ccccc1-c1nc2nn[nH]c2c(=O)[nH]1 [zaprinast]	–	–	infiltration of degrading enzymes [2]: reduced; proteoglycan content and collagen degradation [2]: normalized
